Reference: patent US10082496B2, “Targeting emopamil binding protein (EBP) with small molecules that induce an abnormal feedback response by lowering endogenous cholesterol biosynthesis” (Board of Regents of the University of Texas System, priority 2014, dated 2018)

What was measured:
[1] = tested on: DLD-1; test: In vitro APC inhibition assay (MTT), DLD-1; type: cell-based; conditions: Homo sapiens, DLD-1, DLD-1 (truncated APC)
Method: (§1) The small molecule anti-cancer compounds were evaluated for the ability to inhibit the activity of APC in an in vitro assay.
Reagents required for the assay are: (3-[4,5-Dimethylthiazol-2-yl]-2,5-diphenyltetrazolium bromide; Thiazolyl blue; RPI corp., cat# M92050); RPMI-1640 or Medium of Choice (i.e. DMEM) without phenol red; 1M Hepes; 100 mM NaPyruvate; 1000× Gentamicin (50 mg/ml); 100× Penicillin/Streptomycin/Fungizone; 1×PBS; Triton X-100; 1N HCl and Isopropanol. To make the MTT solution (10×), MTT powder was dissolved into complete RPMI (or DMEM solution) to a final concentration of 5 mg/mL and was sterilized by filtration with a 0.2 μm filter. The MTT solubilization solution contained 10% Triton X-100, 0.1N and 80% isopropanol. MTT solution was diluted to 1× with complete medium at 12 mL per plate. The culture dishes (96 wells) were removed from the incubator and the media was discarded. […] The cells were removed from the incubator and the MTT solution was discarded.
(§2) Percent inhibition was determined relative to control reactions without inhibitor, and half maximal inhibitory concentration (IC50) values were determined using a standard four parameter fit to the inhibition data.

[2] = tested on: HCT-116; test: In vitro APC inhibition assay (MTT), HCT-116; type: cell-based; conditions: Homo sapiens, HCT-116, read-out: IC50 (nM) in HCT-116
Method: as §1
Reagents required for the assay are: (3-[4,5-Dimethylthiazol-2-yl]-2,5-diphenyltetrazolium bromide; Thiazolyl blue; RPI corp., cat# M92050); RPMI-1640 or Medium of Choice (i.e. DMEM) without phenol red; 1M Hepes; 100 mM NaPyruvate; 1000× Gentamicin (50 mg/ml); 100× Penicillin/Streptomycin/Fungizone; 1×PBS; Triton X-100; 1N HCl and Isopropanol. To make the MTT solution (10×), MTT powder was dissolved into complete RPMI (or DMEM solution) to a final concentration of 5 mg/mL and was sterilized by filtration with a 0.2 μm filter. The MTT solubilization solution contained 10% Triton X-100, 0.1N and 80% isopropanol. MTT solution was diluted to 1× with complete medium at 12 mL per plate. The culture dishes (96 wells) were removed from the incubator and the media was discarded. The plates were washed three times with 1×PBS. 100 μl of 1×MTT solution was added to each well and the plates were incubated in a tissue culture incubator for 2-4 hours, depending on the cell line. The cells were removed from the incubator and the MTT solution was discarded. 200 μl of 1×MTT solubilization solution was added to each well using a multi-channel pipetor and the cells were placed on an orbital shaker for 10 minutes. The results were read on a microtiter plate reader (absorbance=570 nm, reference=700 nm) and data was exported.
as §2

IC50 [1] [nM]	IC50 [2] [nM]	SMILES
19	–	CC1CCN(C2CCN(Cc3ccc(OC(F)(F)F)cc3)CC2)CC1
29	–	CC1CCCN(C2CCN(S(=O)(=O)c3ccc(C(F)(F)F)cc3)CC2)C1 (stereo not drawn)
29	–	CC1CCN(C2CCN(S(=O)(=O)c3ccc(OC(F)(F)F)c(Br)c3)CC2)CC1
31	–	CC1CCCN(C2CCN(S(=O)(=O)c3ccc(OC(F)(F)F)cc3)CC2)C1 (stereo not drawn)
41	–	COc1ccc(S(=O)(=O)N2CCC(N3CCC(C)CC3)CC2)c(OC)c1
56	–	CC1CCN(C2CCN(S(=O)(=O)c3cccc(OC(F)(F)F)c3)CC2)CC1
69	–	Cc1cc(C)c(S(=O)(=O)N2CCC([N+]3(C)CCCC3)CC2)c(C)c1
147	–	CCCCC#Cc1cc(S(=O)(=O)N2CCC(N3CCC(C)CC3)CC2)ccc1OC(F)(F)F
172	–	Cc1cc(C)c(S(=O)(=O)N2CCC(N3CCCC3)CC2)c(C)c1
205	–	CC1CCN(C2CCN(S(=O)(=O)c3ccc(OC(F)(F)F)c(C#CCCCCO)c3)CC2)CC1
244	–	CC1CCCN(C2CCN(S(=O)(=O)c3ccc(Oc4ccccc4)cc3)CC2)C1 (stereo not drawn)
253	–	CC1CCN(C2CCN(S(=O)(=O)c3ccc(Oc4ccccc4)cc3)CC2)CC1
255	–	CC1CCCN(C2CCN(S(=O)(=O)c3ccc(F)cc3)CC2)C1 (stereo not drawn)
366	–	CC1CCCN(C2CCN(S(=O)(=O)c3ccc([N+](=O)[O-])cc3)CC2)C1 (stereo not drawn)
374	–	CC(C)c1cc(C(C)C)c(S(=O)(=O)N2CCC(N3CCCC3)CC2)c(C(C)C)c1
421	–	CC1CCN(C2CCN(S(=O)(=O)c3ccccc3OC(F)(F)F)CC2)CC1
463	–	CC1CCN(C2CCN(S(=O)(=O)c3cccc(C(C)(C)C)c3)CC2)CC1
501	–	O=S(=O)(c1ccc(OC(F)(F)F)cc1)N1CCC(N2CCOCC2)CC1
2300	–	C[N+]1(C2CCN(S(=O)(=O)c3cccc4ccccc34)CC2)CCCC1
3900	–	O=S(=O)(c1cccc2ccccc12)N1CCC(N2CCCC2)CC1
~7960	–	C[C@H]1CC[N@@+](C)(C2CCN(S(=O)(=O)c3ccccc3)CC2)CC1

IC50 [1] [nM]	IC50 [2] [nM]	SMILES
5300	–	C#CCC1CCN(C2CCN(S(=O)(=O)c3ccccc3N=[N+]=[N-])CC2)CC1
235	–	C#CCC1CCN(C2CCN(S(=O)(=O)c3ccc(N=[N+]=[N-])cc3)CC2)CC1
1900	–	C#CCC1CCN(C2CCN(S(=O)(=O)c3cccc(N=[N+]=[N-])c3)CC2)CC1
–	> 10000	Cc1nc(Cl)sc1S(=O)(=O)N1CCC(N2CCC(C)CC2)CC1
–	> 10000	Cc1cc(C)c(S(=O)(=O)N2CCC(N3CCCCC3)CC2)c(C)c1
–	> 10000	Cc1cc(C)c(S(=O)(=O)N2CCC(N3CCOCC3)CC2)c(C)c1
–	> 10000	Cc1cc(C)c(S(=O)(=O)N2CCC(N3CCC(c4ccccc4)CC3)CC2)c(C)c1
–	> 10000	Cc1cc(C)c(S(=O)(=O)N2CCC(N3CCC(CCC#N)CC3)CC2)c(C)c1
–	> 10000	CC1CCN(C2CCN(S(=O)(=O)c3ccc(C#N)cc3)CC2)CC1
–	> 10000	CC1CCN(C2CCN(S(=O)(=O)c3ccc(OC(F)F)cc3)CC2)CC1
–	> 10000	Cc1cc(C)c(S(=O)(=O)N2CCC(N3CCC(Cc4ccccc4)CC3)CC2)c(C)c1
–	> 10000	COc1ccc(Br)cc1S(=O)(=O)N1CCC(N2CCC(C)CC2)CC1
–	> 10000	CC1CCN(C2CCN(S(=O)(=O)c3ccc(Br)cc3OC(F)(F)F)CC2)CC1
–	> 10000	C#CCC1CCN(C2CCN(S(=O)(=O)c3ccc(Br)cc3)CC2)CC1
–	> 10000	Cc1cc(C)c(S(=O)(=O)N2CCC(N3CCC(C(C)C)CC3)CC2)c(C)c1
–	> 10000	CC1CCN(C2CCN(S(=O)(=O)c3cccc(Br)c3)CC2)CC1
–	> 10000	CC1CCN(C2CCN(S(=O)(=O)c3ccc(Cl)c(Cl)c3)CC2)CC1
–	> 10000	CC1CCN(C2CCN(S(=O)(=O)c3ccccc3Br)CC2)CC1
–	> 10000	CC1CCN(C2CCN(S(=O)(=O)c3cccc(-c4ccccc4)c3)CC2)CC1
–	> 10000	CC1CCN(C2CCN(S(=O)(=O)c3ccc(-c4ccccc4F)cc3)CC2)CC1

SMILES	IC50 [1] [nM]	IC50 [2] [nM]
COc1ccc(S(=O)(=O)N2CCC(N3CCC(C)CC3)CC2)cc1 [drawing 83]	–	> 10000
